Measured values taken from paper PMC6271245, “Discovery of Gramine Derivatives That Inhibit the Early Stage of EV71 Replication in Vitro” (Molecules, 2014).
Values after ≈ are worked out from the molar mass of the structure shown.

Legend:
Format in all cases: cell-based
[1] = tested on: Enterovirus 71 (EV71); test: Inhibition of EV71-induced cytopathogenicity (CPE) in Vero cells, MTT; conditions: for EC50: Enterovirus A, read-out: EC50 (µg/mL) Vero; for EC50 / EC50 (µg/mL) Vero: concentration for 50% protection from virus-induced cytopathogenicity, Vero cells, 100 TCID50 EV71, 48 h, MTT, mean ± SD of three experiments
Method: (§1) The antiviral activities of gramine and its derivatives against EV71 based on inhibition of virus-induced cytopathogenicity effects (CPEs) in African green monkey kidney cells (Vero) and rhabdomyosarcoma cells (RD) were examined. The cytotoxic effects were also evaluated. The inhibitory activities expressed as half maximal effective concentration (EC50) values and selectivity indexes (SI) for the target compounds are presented in Table 1, and the dose-dependent antiviral effects are shown in Figure 1A.
Figure 1 Gramine and its synthetic derivatives inhibited virus-induced CPE. (A) Vero cells were infected with 100 TCID50 of EV71 mixed with serial dilutions of tested compounds for 1.5 h at 37 °C; the inoculum was aspirated and cells were incubated with DMEM/tested compounds at 37 °C, 5% CO2 for 48 h pi. The viability of the cells was determined with an MTT assay; (B) Morphology image of Vero and RD cells treated with compounds 4a, 4i, 4r, and 4s for 48 h pi. (magnification, 20×).
(§2) The activity of compounds against EV71 was determined based on the inhibition of virus-induced cytopathogenicity effects (CPEs) in acutely infected cells. Vero and RD cells grown to 90% confluency in 96-well dishes were washed with phosphate buffered saline (PBS) and infected with 100 TCID50 of EV71 mixed with serial dilutions of tested compounds for 1.5 h at 37 °C. The inoculum was aspirated and cells were incubated with DMEM and test compounds at 37 °C, 5% CO2 for 48 h. The CPEs were observed microscopically and the viability of the cells was determined with a 3-(4,5-dimethylthiazol-2-yl)-2,5-diphenyltetrazolium bromide (MTT) assay. The concentrations required for the test compounds to achieve 50% protection from virus-induced cytopathogenicity (EC50) were determined. Adverse effects of these compounds on the host cells were also assessed by means of the MTT-method; by exposing uninfected cells to various concentrations of test compounds for 48 h at 37 °C, the viability of the cells was detected. The 50% cell cytotoxic concentrations (CC50) of compounds were calculated with the SPSS software (SPSS, Chicago, IL, USA). Selectivity indexes were calculated as the ratio of CC50: EC50.
(§3) Cell viability was assessed by an MTT assay, which functions based on the reduction of a MTT into formazan dye by active mitochondria. The cells were treated with 100 µL of MTT (1 mg/mL, Sigma, St. Louis, MO, USA) and incubated at 37 °C for 4 h. The reaction was blocked by DMSO and measured in a microplate reader (Bio-Tek Instruments, Winooski, VT, USA) at 492 nm. The untreated control was arbitrarily set as 100%.

[2] = tested on: Enterovirus 71 (EV71); test: Inhibition of EV71-induced cytopathogenicity (CPE) in RD cells, MTT; conditions: concentration for 50% protection from virus-induced cytopathogenicity, RD cells, 100 TCID50 EV71, 48 h, MTT; for EC50: Enterovirus A, read-out: EC50 (µg/mL) RD
Method: as §1, §2, §3

[3] = Cytotoxicity on uninfected Vero cells, MTT; conditions: African green monkey
Method: as §1, §2, §3

[4] = Cytotoxicity on uninfected RD cells, MTT; conditions: human, concentration reducing cell viability by 50%
Method: Human RD cells and Vero cells were maintained in Dulbecco’s modified Eagle’s medium (Gibco-Invitrogen, Carlsbad, CA, USA) supplemented with 10% fetal bovine serum (FBS; Gibco), 100 U/mL of penicillin and streptomycin, and 2 mM L-glutamine. Enterovirus 71 (EV71) was kindly provided by Zhanqiu Yang (Institute of Medical Virology, School of Medicine, Wuhan University, China) and propagated in RD cell lines. The virus titer was determined by the standard method of median tissue culture infective dose (TCID50) on RD cells.
as §2, §3

[5] = concentration reducing cell viability by 50%, uninfected Vero cells, 48 h, MTT, read-out: CC50 (µg/mL) Vero

Row | EC50 [1] | EC50 [2] | EC50 (µg/mL) RD [2] | EC50 (µg/mL) Vero [1] | SMILES | CC50 at 48 h [3, 5] | CC50 at 48 h [4] | anti-EV71 activity ([1]; inhibition of EV71-induced CPEs compared with virus control) | CC50 at 48 h [3]
1 | 5.1 ± 2.7 µg/mL (≈ 15.3 µM) | 7.4 ± 1.1 µg/mL (≈ 22.2 µM) |  |  | Clc1ccccc1C(Nc1ccccn1)c1c[nH]c2ccccc12 (centres unmarked) [Compound 4b] | 18.6 ± 1.4 µg/mL (≈ 55.7 µM) | 22.8 ± 1.7 µg/mL (≈ 68.3 µM) |  | 
2 | 5.6 ± 1.3 µg/mL (≈ 16.8 µM) | 6.7 ± 0.8 µg/mL (≈ 20.1 µM) |  |  | Clc1ccc(C(Nc2ccccn2)c2c[nH]c3ccccc23)cc1 (centres unmarked) [Compound 4c] | 22.4 ± 3.6 µg/mL (≈ 67.1 µM) | 24.6 ± 3.5 µg/mL (≈ 73.7 µM) |  | 
3 | 9.2 ± 2.1 µg/mL (≈ 29 µM) | 5.8 ± 1.4 µg/mL (≈ 18.3 µM) |  |  | Fc1ccccc1C(Nc1ccccn1)c1c[nH]c2ccccc12 (centres unmarked) [Compound 4d] | 37.8 ± 5.8 µg/mL (≈ 119 µM) | 28 ± 5.2 µg/mL (≈ 88.2 µM) |  | 
4 | 7.3 ± 2.6 µg/mL (≈ 23 µM) | 6.2 ± 2.8 µg/mL (≈ 19.5 µM) |  |  | Fc1ccc(C(Nc2ccccn2)c2c[nH]c3ccccc23)cc1 (centres unmarked) [Compound 4e] | 40.7 ± 2.5 µg/mL (≈ 128 µM) | 29.5 ± 3.3 µg/mL (≈ 93 µM) |  | 
5 | 14.4 ± 3.2 µg/mL (≈ 41.4 µM) |  | — (less than 50% inhibition) |  | Cn1cc(C(Nc2ccccn2)c2ccccc2Cl)c2ccccc21 (centres unmarked) [Compound 4f] | 86.4 ± 7.4 µg/mL (≈ 248 µM) | 44 ± 5.1 µg/mL (≈ 126 µM) |  | 
6 | 4.9 ± 0.7 µg/mL (≈ 14.1 µM) | 4.9 ± 1.2 µg/mL (≈ 14.1 µM) |  |  | Cn1cc(C(Nc2ccccn2)c2ccc(Cl)cc2)c2ccccc21 (centres unmarked) [Compound 4g] | 38.6 ± 5.7 µg/mL (≈ 111 µM) | 32 ± 1.8 µg/mL (≈ 92 µM) |  | 
7 | 10.5 ± 2.1 µg/mL (≈ 31.7 µM) | 11.2 ± 4.6 µg/mL (≈ 33.8 µM) |  |  | Cn1cc(C(Nc2ccccn2)c2ccccc2F)c2ccccc21 (centres unmarked) [Compound 4h] | 89.3 ± 12.6 µg/mL (≈ 269 µM) | 52.2 ± 8.3 µg/mL (≈ 158 µM) |  | 
8 | 8.7 ± 2.9 µg/mL (≈ 23.7 µM) | 8.3 ± 3.5 µg/mL (≈ 22.6 µM) |  |  | FC(F)(F)c1ccc(C(Nc2ccccn2)c2c[nH]c3ccccc23)cc1 (centres unmarked) [Compound 4j] | 15.8 ± 3.3 µg/mL (≈ 43 µM) | 17.8 ± 2.6 µg/mL (≈ 48.5 µM) |  | 
9 | 13.2 ± 1.3 µg/mL (≈ 34.6 µM) | 9.8 ± 3.4 µg/mL (≈ 25.7 µM) |  |  | Cn1cc(C(Nc2ccccn2)c2ccc(C(F)(F)F)cc2)c2ccccc21 (centres unmarked) [Compound 4k] | 18.5 ± 4.8 µg/mL (≈ 48.5 µM) | 27.6 ± 8.3 µg/mL (≈ 72.4 µM) |  | 
10 |  |  | — (less than 50% inhibition) | — (less than 50% inhibition) | c1ccc(NC(c2ccccn2)c2c[nH]c3ccccc23)nc1 (centres unmarked) [Compound 4l] | 96.2 ± 15.5 µg/mL (≈ 320 µM) | 65.2 ± 9.1 µg/mL (≈ 217 µM) |  | 
11 |  |  | — (less than 50% inhibition) | — (less than 50% inhibition) | Cn1cc(C(Nc2ccccn2)c2ccccn2)c2ccccc21 (centres unmarked) [Compound 4m] | > 200 µg/mL | > 200 µg/mL |  | 
12 |  |  | — (less than 50% inhibition) | — (less than 50% inhibition) | c1ccc(NC(c2ccncc2)c2c[nH]c3ccccc23)nc1 (centres unmarked) [Compound 4n] | 121 ± 20.5 µg/mL (≈ 402 µM) | > 200 µg/mL |  | 
13 | 16.9 ± 1.5 µg/mL (≈ 53.8 µM) | 9.5 ± 1.7 µg/mL (≈ 30.2 µM) |  |  | Cn1cc(C(Nc2ccccn2)c2ccncc2)c2ccccc21 (centres unmarked) [Compound 4o] | 72.8 ± 18.8 µg/mL (≈ 232 µM) | 39.2 ± 11.6 µg/mL (≈ 125 µM) |  | 
14 | 2.1 ± 0.7 µg/mL (≈ 5.39 µM) | 3.2 ± 0.4 µg/mL (≈ 8.21 µM) |  |  | Clc1ccccc1C(Nc1nc2ccccc2s1)c1c[nH]c2ccccc12 (centres unmarked) [Compound 4p] | 6.6 ± 1.4 µg/mL (≈ 16.9 µM) | 11.7 ± 4.6 µg/mL (≈ 30 µM) |  | 
15 | 1.8 ± 1.1 µg/mL (≈ 4.82 µM) | 2.7 ± 1.2 µg/mL (≈ 7.23 µM) |  |  | Fc1ccccc1C(Nc1nc2ccccc2s1)c1c[nH]c2ccccc12 (centres unmarked) [Compound 4q] | 10.8 ± 2.5 µg/mL (≈ 28.9 µM) | 14.5 ± 3.6 µg/mL (≈ 38.8 µM) |  | 
16 | 1.9 ± 0.6 µg/mL (≈ 6.52 µM) | 2.6 ± 0.8 µg/mL (≈ 8.92 µM) |  |  | Fc1ccc(C(c2c[nH]c3ccccc23)n2cccn2)cc1 (centres unmarked) [Compound 4t] | 10.5 ± 2.4 µg/mL (≈ 36 µM) | 12.6 ± 3.5 µg/mL (≈ 43.3 µM) |  | 
17 | 2.3 ± 0.3 µg/mL (≈ 7.87 µM) | 3.1 ± 1.3 µg/mL (≈ 10.6 µM) |  |  | Fc1ccc(C(c2c[nH]c3ccccc23)n2cncn2)cc1 (centres unmarked) [Compound 4u] | 4.9 ± 0.6 µg/mL (≈ 16.8 µM) | 6.8 ± 2.5 µg/mL (≈ 23.3 µM) |  | 
18 | 44.6 ± 13.5 µg/mL (≈ 183 µM) | 32.1 µg/mL (≈ 131 µM) |  |  | NC(=O)c1ncn([C@@H]2O[C@H](CO)[C@@H](O)[C@H]2O)n1 [ribavirin, reference compound] |  | 436 µg/mL (≈ 1780 µM) |  | > 500 µg/mL

Row | SMILES | EC50 [1] | EC50 [2] | EC50 (µg/mL) RD [2] | EC50 (µg/mL) Vero [1] | CC50 at 48 h [3, 5] | CC50 at 48 h [4] | anti-EV71 activity ([1]; inhibition of EV71-induced CPEs compared with virus control) | CC50 at 48 h [3]
19 | CN(C)Cc1c[nH]c2ccccc12 [Gramine] |  |  | — (less than 50% inhibition) | — ^d (less than 50% inhibition) |  | 85 ± 16.3 µg/mL (≈ 488 µM) | not observed | 101 ± 5.6 µg/mL (≈ 582 µM)
